# Experimental data taken from patent US20140057865A1, “ANALYSIS OF NODES IN CELLULAR PATHWAYS” (Nodality, Inc., priority 2009, published 2014).
# “Also recorded” adds a separate entry of the source.
# What was measured:
# [1] = test system: U937 cells; assay: Cell cycle progression and cell death by DAPI staining and scatter; assay type: cell-based, human; conditions: Vidaza 2.5 μM, Dacogen 0.625 μM, 20 hours
# Procedure: (§1) FIGS. 9 and 10 show an embodiment of the invention used to analyze the effects of the DNA methyltransferase inhibitor drugs Vidaza® cytidine analog and Dacogen® cytidine analog on cultured U937 cells. See Example 1 in U.S. Ser. No. 61/120,320 for detailed cell culture, staining, and flow cytometry protocols similar to those used in this example. Here, to analyze the effects of Vidaza® cytidine analog and Dacogen® cytidine analog on cell cycle progression and cell death, U937 cells were treated with Vidaza® cytidine analog (5-Azacytidine) at a concentration of 2.5 μM, or Dacogen® cytidine analog (5-Aza-2′-deoxycytidine) at a concentration of 0.625 μM. The cells were continuously incubated with the drugs for 20 hours in 10% FBS RPMI, fixed, permeabilized, and then stained with DAPI, or stained with DAPI and immunolabeled with antibodies against DMNT 1.
# (§2) (See Alberts et al., Molecular Biology of the Cell, 4th Ed., Chapter 17 for an overview of the cell cycle). […] Additionally, the experimental results in this example may be used to identify therapeutic agents that can be used in combination with either Vidaza® cytidine analog or Dacogen® cytidine analog. […]
# [2] = test system: DNMT1; assay: DNMT1 expression by immunolabeling, flow cytometry; assay type: cell-based, human; conditions: U937 cells, Vidaza 2.5 μM, 20 hours
# Procedure: as §1, §2
# [3] = test system: U937 cells; assay: Cell cycle nodes by flow cytometry, ON01910.Na titration; assay type: cell-based, human
# Procedure: (§3) In the example, erythroblast (TF-1) and U937 cell lines, as well as healthy bone marrow mononuclear cells, were treated with a test modulator (ON01910.Na) over several dilutions for 24 hours. Flow cytometry was used to obtain multiple intracellular readouts or nodes, including levels of protein phosphorylation, levels of protein expression, cell size and shape, and DNA content.
# (§4) The findings shown in FIGS. 4 through 7 were tested in other cell types.
# [4] = test system: erythroblast (TF-1) cell line; assay: DNA content by DAPI staining, flow cytometry; assay type: cell-based, human; conditions: for cell cycle arrest and cell death by DNA content (sub-2n through 4n, DAPI staining): TF-1 erythroblasts, several dilutions, 24 hours
# Text: DNA content can be directly monitored using fluorescent dyes that bind DNA in the major or minor groove. This labeled DNA can be detected and cellular DNA content can be determined using flow cytometry or other methods as described below. DNA content can be used to indicate the status of a cell or population of cells. The effect of a compound on both the cell cycle and cell death pathways can be determined by monitoring changes in DNA content within a single cell or a population of cells. For example, cell cycle arrest in G1 or G2/M phases of the cell cycle may appear as an increase in 2n or 4n DNA content respectively while an increase in cell death may appear as an increase in sub-2n DNA content.
# as §3
# [5] = test system: healthy bone marrow mononuclear cells; assay: Cell cycle nodes by flow cytometry, ON01910.Na titration; assay type: cell-based
# Procedure: as §3, §4
# [6] = test system: TF-1 cells; assay: Cell cycle nodes (p-Cdk1 Y15, p-Histone H3 S28, Cyclin B1) by flow cytometry; assay type: cell-based, human
# Procedure: as §3
# FIGS. 4-6 show the effects of two concentrations of ON01910.Na on different markers or nodes whose activation status correlates with cell cycle progression. […] Cdk1 activation normally occurs at the end of G2, so increased Cdk1 levels […] at tyrosine 15 are consistent with cell cycle arrest in G2 or early M phases (See Alberts et al, Molecular Biology of the Cell, 4th Ed., Chapter 17 for a detailed discussion of the cell cycle).
# Phosphorylation of histone H3 is a marker of chromatin condensation and entry into M phase (See Alberts et al, Molecular Biology of the Cell, 4th Ed., FIG. 4-35 for discussion of histone modifications). Continuous treatment with ON01910.Na for 24-hours enhances H3 (Ser28) phosphorylation. The effects of these two doses on the node state (serine 28 phosphorylation of H3) are detectable using flow cytometry. […] FIG. 7 presents a summary of the effects of ON01910.Na treatment on the Cyclin B1, p-Cdk1 Y15, and pH3 S28 cell cycle nodes.
# [7] = test system: erythroblast (TF-1) cell line; assay: Cell death by forward and side scatter of light; assay type: cell-based, human; conditions: TF-1 erythroblasts, 24 and 48-hour continuous treatment
# Text: In some embodiments of the invention, the activatible elements may function in cell death, including apoptosis or necrosis. A person of ordinary skill in the art may analyze cell death using stains, biomarkers, assays, or kits to identify node states associated with cell cycle progression and cell death without departing from the scope of the invention. By way of example, stains used to identify cell death include, but are not limited to amine aqua, propidium iodide, 4′,6-diamidino-2-phenylindole (DAPI), bromodeoxyuridine (BrdU), acridine orange, SYTOX, and TUNEL. A person of ordinary skill in the art will appreciate that several of the aforementioned stains, such as DAPI, may also be used to determine the cell cycle of a single cell or population of cells. Cell death may also be identified using the forward versus side scatter dot plots obtained during flow cytometry.
# as §3
# [8] = test system: healthy bone marrow mononuclear cells; assay: Viability of healthy BMMCs, ON01910.Na titration; assay type: cell-based
# Procedure: as §3, §4
# [9] = TF-1 erythroblasts, two concentrations, 24 hours continuous
SMILES,"effect on cell cycle progression and cell death (DAPI frequency plots, scatter) [1]",expression of DNMT1 [2],changes in cell cycle signaling molecules [3],expression of Cyclin B1 ([3]; 24 hours),phosphorylation of Cdk1 ([3]; 24 hours),phosphorylation of H3 ([3]; 24 hours),"4n DNA content peak ([4]; TF-1 cells, 0.12 μM and 0.37 μM)","cell cycle arrest and cell death by DNA content (sub-2n through 4n, DAPI staining) [4]","cell cycle arrest and cell death by DNA content (sub-2n through 4n, DAPI staining) ([4]; listed as ON-01910.Na)",cycling bone marrow mononuclear cells as measured by p-Cdk1 Y15 ([5]; BMMCs),Cyclin B1 expression levels ([5]; healthy BMMCs),"cell cycle arrest indicated by Cyclin B1, p-Cdk1 Y15 and pH3 S28 nodes ([6]; TF-1 cells, various concentrations, 24 hours)","Cyclin B1 expression ([6]; TF-1 erythroblasts, increased concentration)","p-Cdk1 Y15 phosphorylation [6, 9]","p-Histone H3 S28 phosphorylation [6, 9]",cell death by scatter properties [7],cell death by scatter properties ([7]; listed as ON-01910.Na),viability of healthy bone marrow mononuclear cells [8]
"Nc1ncn([C@H]2C[C@H](O)[C@@H](CO)O2)c(=O)n1 [Dacogen, 5-Aza-2′-deoxycytidine]",S phase cell cycle arrest; also recorded: inducing arrest at S phase,–,–,–,–,–,–,–,–,–,–,–,–,–,–,–,–,–
"Nc1ncn([C@@H]2O[C@H](CO)[C@@H](O)[C@H]2O)c(=O)n1 [Vidaza, 5-Azacytidine]",increased cell death; also recorded: inducing cell death,decreased expression; also recorded: mediates a decrease in DNMT1,–,–,–,–,–,–,–,–,–,–,–,–,–,–,–,–
COc1cc(OC)c(/C=C/S(=O)(=O)Cc2ccc(OC)c(NCC(=O)[O-])c2)c(OC)c1.[Na+] [ON01910.Na],–,–,simultaneous changes in cell cycle signaling molecules at the same drug concentration,increased,decreased phosphorylation of Cdk1,increased phosphorylation of H3,increases in a dose-dependent manner,induces arrest in G2/M and cell death in a dose-dependent manner,induces arrest in G2/M and cell death,dose dependent decrease of cycling bone marrow mononuclear cells,Cyclin B1 expression levels increase,arrest in the G2 or M phases of the cell cycle in a dose dependent manner,more cells express Cyclin B1; also recorded: mediates an increase in cyclin B1,increases dephosphorylation of p-Cdk1 at tyrosine 15; also recorded: mediates dephosphorylation of p-Cdk1^Y15,histone 3 serine 28 phosphorylation increases; also recorded: mediates an increase in p-HistoneH3^S28,"induce cell death, with a greater magnitude of cell death observed following longer treatment and higher dose; also recorded: induces cell death in erythroblasts",induces cell death,does not significantly alter viability
